PubChem BioAssay AID1259342 (Broad Institute, 2017)
Activity calls are given as the source filed them.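 Rule for the calls: active = fitted half-maximal inhibitory concentration AC50 at most ten times the top concentration tested; inconclusive = flat fit with 30 to 70% inhibition, or unusable fit; inactive = AC50 above ten times the top concentration.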

Target: E3 ubiquitin-protein ligase TRIM62 (Homo sapiens) (UniProt Q9BVG3)
Test: TRIM62 E3 ligase activity on CARD9 – biochemical, ubiquitin ELISA, AlphaLISA TUBE, CARD9-TRIM62 disruptor project, dose response (AID 1259342);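 for AC50: potency is for inhibitors that reduce CARD9 ubiquitylation signal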
Conditions: TRIM62-mediated CARD9 ubiquitylation, AlphaLISA TUBE detection

E3 ubiquitin-protein ligase TRIM62 (Homo sapiens), sequence (Q9BVG3 whole entry, looked up): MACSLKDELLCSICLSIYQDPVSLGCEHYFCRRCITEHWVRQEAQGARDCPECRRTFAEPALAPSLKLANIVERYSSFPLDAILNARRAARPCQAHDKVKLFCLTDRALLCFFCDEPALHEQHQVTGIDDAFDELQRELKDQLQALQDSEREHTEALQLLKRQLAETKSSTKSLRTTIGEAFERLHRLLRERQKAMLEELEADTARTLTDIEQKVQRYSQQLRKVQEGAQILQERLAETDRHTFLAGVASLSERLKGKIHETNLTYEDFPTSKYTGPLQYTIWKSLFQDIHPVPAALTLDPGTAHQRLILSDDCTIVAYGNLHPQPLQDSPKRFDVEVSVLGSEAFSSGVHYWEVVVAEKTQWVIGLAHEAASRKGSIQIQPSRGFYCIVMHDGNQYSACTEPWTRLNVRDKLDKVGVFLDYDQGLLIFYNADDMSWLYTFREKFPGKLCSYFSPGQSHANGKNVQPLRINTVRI

Row | SMILES | activity change, negative = inhibition (at 80 µM (top of the series)) | AC50 | other results
1 | O=C1CC2(CCN(C(=O)Nc3ccccc3)CC2)CN1Cc1ccc(Cl)cc1 | inactive | – | –
2 | O=C(Nc1ccc2oc(-c3ccncc3)nc2c1)c1ccc2c(c1)OCO2 | inactive | – | –
3 | O=C(COC(=O)c1cc(-c2ccco2)nc2ccccc12)NCc1ccc2c(c1)OCO2 | inactive | – | –
4 | O=C(Nc1nc(-c2ccco2)c(-c2ccco2)s1)C1CCC1 | – | 6.56 µM | –
5 | CCCN1CCc2nc(SCc3nc(-c4ccc(OC)cc4OC)oc3C)[nH]c(=O)c2C1 | – | > 160 µM (inactive) | –
6 | O=C(Nc1nccs1)c1cc(-c2ccccn2)nc2c(Cl)cccc12 | – | 75.4 µM | –
7 | CC(C)C(CC(=O)NCc1ccco1)c1ccco1 (stereo unspecified) | – | 5.47 µM | –
8 | COCCC(=O)N1CCCC2(CCN(CCN3CCCC3)C2=O)C1 (stereo unspecified) | inactive | – | –
9 | CCOc1ccccc1NC(=O)N1CCCC(c2nccn2CCOC)C1 (stereo unspecified) | inactive | – | –
10 | COc1ccc(NC(=O)CN(C)C(=O)c2cc(-c3ccco3)nc3ccccc23)cc1 | – | 16.6 µM | –
11 | Clc1ccc2nc(CN3CCCCCC3)cn2c1 | inactive | – | –
12 | O=C1CC(c2ccco2)Cc2nc(N3CCc4ccccc4C3)ncc21 (stereo unspecified) | inactive | – | –
13 | N#Cc1sc2nc(-c3ccccc3)cc(-c3ccco3)c2c1N | inactive | – | –
14 | O=C(NCCc1ccccc1)c1cc2cccnc2n(Cc2ccccc2)c1=O | inactive | – | –
15 | Cc1ccc(Nc2nc(C(=O)Nc3ccc(Cl)cc3)nc3ccccc23)cc1 | inactive | – | –
16 | Cc1ccc(-c2nc(C)sc2CC(=O)NCc2ccco2)cc1 | – | 56.6 µM | –
17 | Cc1ccc(C2CC(=O)C3=C(C2)Nc2ccccc2NC3c2cccnc2)cc1 (stereo unspecified) | inactive | – | –
18 | CCCOc1ccc(CCC(=O)O)cc1 | inactive | – | –

Row | SMILES | activity change, negative = inhibition (at 80 µM (top of the series)) | AC50 | other results
19 | O=C(O)Cc1c[nH]c2cccc(O)c12 | – | 0.921 µM | –
20 | COCC(=O)N1CCCC2(CCN(CCN3CCCC3)C2=O)C1 (stereo unspecified) | inactive | – | –
21 | N#Cc1c(N)oc(-c2ccco2)c1-c1ccco1 | – | 29.6 µM | –
22 | O=C(Nc1nccs1)c1cc(-c2ccco2)nc2ccccc12 | – | 15.7 µM | –
23 | Cc1cnc(C)c(N2CCN(C(=O)[C@H]3CC[C@@H](N)C3)CC2)n1 | inactive | – | –
24 | O=C(NCc1ccco1)c1c2c(nc3ccccc13)CCC2 | – | 17.3 µM | –
25 | CCc1nc(OCc2ccco2)c2sc3nc4c(cc3c2n1)COC(C)(C)C4 | – | > 160 µM (inactive) | –
26 | O=C(Nc1cccc2ccccc12)NC1CC1 | inactive | – | –
27 | CCCCCn1c(NC(=O)c2ccco2)c(C(=O)OCC)c2nc3ccccc3nc21 | – | – | activity change, negative = inhibition (at 38 µM (top of the series)): inactive
28 | O=C(Nc1nc(-c2nc3ccccc3s2)cs1)c1ccco1 | – | – | activity change, negative = inhibition (at 38 µM (top of the series)): inactive
29 | Cc1ccc2c(c1)C(N1CCCC1=O)CC(c1ccco1)N2 (stereo unspecified) | inactive | – | –
30 | Cc1cncc(-c2ccc(S(N)(=O)=O)cc2F)c1 | inactive | – | –
31 | O=C1c2ccccc2S(=O)(=O)N1Cc1cccc(S(=O)(=O)N2CCOCC2)c1 | inactive | – | –
32 | O=C(NCc1ccco1)C1CCCN(S(=O)(=O)c2cccc3nonc23)C1 (stereo unspecified) | inactive | – | –
33 | NC(=O)C1(N2CCCCC2)CCN(c2ncc(NC(=O)c3ccccc3)cc2C(=O)O)CC1 | – | 6.61 µM | –
34 | CS(=O)(=O)N1CCN(c2ccc([N+](=O)[O-])c(SCc3ccco3)c2)CC1 | inactive | – | –
35 | Cc1[nH]c2ccc(Cl)cc2c(=O)c1CN1CCCC1 | inactive | – | –
36 | FC(F)(F)c1cc(Cl)c2nnc(C(F)(F)Cl)n2c1 | inactive | – | –
